Assay results as given in publication PMC11429909, “Protein Structure Inspired Discovery of a Novel Inducer of Anoikis in Human Melanoma” (Cancers, 2024).

What was measured:
[1] = system: human cord blood CD34+ cells; test: Bone marrow stem cell (hematopoietic trilineage) colony formation assay; type: cell-based; details: for Mean Number of Colonies, % of Control, 14 days / Mean Number of Colonies, % of Control, 8 days: normal bone marrow, compound at 40 µM, N = 2; for Mean Number of Colonies, % of Control, 8 days: total colonies at 8 days
Protocol: (§1) Human hematopoietic stem cell trilineage colony formation assays were performed as previously described by us. Briefly, human cord blood CD34+ cells (catalog #: 70008.5) were purchased from StemCell Technology Inc. and seeded at 1 × 10^4 cells per 35 mm dish. Cells were cultured in MethoCult™ Express (StemCell Technologies, Inc. (Vancouver, BC, Canada)) semisolid media, per the manufacturer’s instructions, in the presence of compound or vehicle (for controls). Compounds were added at final concentrations matching those used in the initial growth assay screens. At eight days, colonies (i.e., groups of ≥10 cells) were counted. At fourteen days, individual colonies of erythroid burst-forming units (BFU-E), colony-forming unit granulocyte–macrophage (CFU-GM), and colony-forming unit granulocyte, erythrocyte, monocyte, and megakaryocyte (CFU-GEMM) were identified based on the manufacturers’ morphologic characterization criteria. Assays were run in replicates of N = 2, and some were run in replicates of N = 4, as denoted. The mean number of colonies was then determined and expressed as the percentage of controls. The effect of each compound on inhibiting the growth of cancer cells relative to its toxic effects on normal bone marrow was evaluated. This was carried out by comparing colonies at 8 days for each cancer cell line to that of bone marrow. This information was used to calculate the efficacy ratio, as follows: efficacy ratio = (percent of remaining cancer cell colonies)/(percent of remaining bone marrow colonies). This was performed for all compounds at 40 µM and for selected compounds at 5.7 µM, as denoted. For compounds nominated for second-level screens, bone marrow colony formation assays were also repeated. Compounds were added at final concentrations matching those used in the initial screens.
In parallel with measuring growth inhibition of cancer cell growth, we measured the effect on human hematopoietic stem cells. Hematopoietic stem cells reside in the bone marrow and are the source of mature cells present in blood. Bone marrow is one of the most sensitive organs in the body to drug toxicity, and this is especially so for anticancer drugs, where bone marrow toxicity can approach 100% [78, 79, 80]. Bone marrow toxicity was measured by performing hematopoietic colony formation assays on human CD34+ stem cells. The stem cell nature of this assay permitted the assessment of trilineage colony formation: granulocytic (white blood cells), erythrocytic (red blood cells), and megakaryocytic (platelets), measured by the formation of CFU-GM, BFU-E, and CFU-GEMM colonies, respectively. Two measurements were taken. First, total colonies at eight days were measured, thereby matching the eight-day timeframe of cancer cell colony formation assays. Second, at fourteen days, individual colonies had differentiated, permitting quantification of each lineage.

[2] = system: breast, prostate, colon, or lung cancer cell lines; test: Eight-day colony formation assays, summary across the cancer cell line panel; type: cell-based, human; details: for efficacy at concentrations below 40 µM (in words): 8-day colony formation
Protocol: Initial colony formation screening assays were conducted on all acquired compounds and examined at five different compound concentrations. Those meeting efficacy criteria underwent a second-level screen examining nine different compound concentrations. Eight-day colony formation assays of cancer cells were performed as described by us. Briefly, 0.5–1.0 × 10^3 cells were seeded into each well of a 12-well plate. Twenty-four hours later, the compound was added at the following final concentrations: 0 (DMSO-only control), 0.017, 0.12, 0.82, 5.7, and 40 µM. For each concentration, there were N = 2 replicates, i.e., 2 wells. Eight days later, plates were stained with trypan blue, visualized under light microscopy, and groups of three or more cells were scored as colonies. The mean number of colonies was then determined and expressed as the percentage of controls. Second-level screens were performed on compounds inhibiting colony formation by greater than 50% at 40 µM in at least two cell lines. Second-level assays used the following final concentrations of compound: 0 (DMSO only), 0.0061, 0.018, 0.05, 0.16, 0.49, 1.48, 4.44, 13.33, and 40 µM. All compounds were stored under desiccated conditions in a sealed container at minus 20 °C upon arrival. One day prior to use, they were dissolved in DMSO, stored at minus 20 °C as stock solutions, thawed just prior to use, and not reused.
as §1
We sought to identify compounds that would inhibit the growth of cancer cells, but that also did so selectively. Inhibition of cancer cell growth is a highly sought after attribute of anticancer agents. This was assessed by measuring the ability of a compound to inhibit cell growth in eight-day colony formation assays and examining concentrations ranging from 0.017 to 40 µM. Breast, colon, lung, and prostate cancer are four of the most common types of cancer in the United States, are major causes of cancer cell death, and were examined. […]

NCI-60 cell lines = test: NCI-60 cell line screen; type: cell-based, human; details: 48 h at 10 µM
Protocol: The above findings support the importance of Dxr2 and FolC2 sites, and of Dxr2-017 and FolC2-001 compounds, respectively. The NCI-60 cell line screen evaluates compound growth inhibition and cell toxicity in a highly standardized manner across 60 different cell lines. Dxr2-017 and FolC2-001 were evaluated in this assay (Figure S6). NCI-60 screens evaluate cells treated for 48 h at 10 µM with a given compound. […] Of high interest, in the NCI-60 screen, Dxr2-017 had relatively high activity against melanoma cell lines, inducing cell death in five cell lines ranging from 25% to 65%, and inhibiting growth in four cell lines ranging from 76% to 96%. Its impact on cell death represented the most striking relative difference in response across cell lines.

HT29 = test: Eight-day colony formation assay, colon cancer HT29; type: cell-based, human; details: 0.82 µM
Protocol: Initial colony formation screening assays were conducted on all acquired compounds and examined at five different compound concentrations. Those meeting efficacy criteria underwent a second-level screen examining nine different compound concentrations. Eight-day colony formation assays of cancer cells were performed as described by us. Briefly, 0.5–1.0 × 10^3 cells were seeded into each well of a 12-well plate. Twenty-four hours later, the compound was added at the following final concentrations: 0 (DMSO-only control), 0.017, 0.12, 0.82, 5.7, and 40 µM. For each concentration, there were N = 2 replicates, i.e., 2 wells. Eight days later, plates were stained with trypan blue, visualized under light microscopy, and groups of three or more cells were scored as colonies. The mean number of colonies was then determined and expressed as the percentage of controls. […]
In addition to screens, eight-day colony formation assays were conducted for certain experiments, as denoted. […] The IC50 values were calculated using nonlinear regression analysis. […] The IC50 values were determined using the dose–response inhibition function. […]
Human hematopoietic stem cell trilineage colony formation assays were performed as previously described by us. […] At eight days, colonies (i.e., groups of ≥10 cells) were counted. […] The mean number of colonies was then determined and expressed as the percentage of controls. […]

Mean Number of Colonies, % of Control, 14 days [1] | Mean Number of Colonies, % of Control, 8 days [1] | SMILES | further results
87 % of Control | 108 % of Control | O=C(Cn1c(=O)oc2ccccc21)N1CCn2c1nc1ccccc12 [FolC2-001] | efficacy ratio, mean ± SEM over cell lines with ratio below 0.5 ([2]; 40 µM, 8 days): 0.29 ± 0.09; number of cell lines with efficacy ratio below 0.5 ([2]; 40 µM, 8 days): five; efficacy at concentrations below 40 µM (in words) [2]: rapidly dropped off below 40 µM; activity in the NCI-60 screen (in words) (NCI-60 cell lines): against H226
119 % of Control | 93 % of Control | O=C(Nc1nnn[nH]1)c1cc(-c2ccccc2)nc2ccccc12 [PRT-051] | 
 |  | O=c1[nH]cc(F)c(=O)[nH]1 [Compound 5FU, 5-fluorouracil, reference compound] | effect on bone marrow colony formation (in words) ([1]; 0.82 µM): no effect on bone marrow; effect on bone marrow colony formation (in words) ([1]; 5.7 µM): profound suppressive effects; hematopoietic colony formation, % of the control ([1]; 5.7 µM, 8 days): 38 % of the control; effect on bone marrow colony formation (in words) ([1]; 40 µM): completely suppressed colony formation; efficacy ratio (cancer cell colonies / bone marrow colonies, 8 days) (HT29): 0.82
94 % of Control | 97 % of Control | O=C(COC(=O)c1cccs1)c1ccc2[nH]c(=O)[nH]c2c1 [TYLT-003] | 
103 % of Control | 117 % of Control | O=C(Cc1n[nH]c(=O)c2ccccc12)Nn1cnc2ccccc21 [TYLT-001] | 
85 % of Control | 80 % of Control | c1ccc(CCc2n[nH]c(-c3ccccn3)n2)cc1 [FolC1-031] | 
101 % of Control | 105 % of Control | O=C(CCc1c[nH]c2ccccc12)N1CCSc2ccccc21 [FolC2-005] | efficacy at concentrations below 40 µM (in words) [2]: A similar phenomenon was observed
93 % of Control | 109 % of Control | Cc1nnsc1C(=O)OCCCn1c(=O)[nH]c2ccccc21 [Dxr2-001] | 
114 % of Control | 94 % of Control | Cc1[nH]c(=O)[nH]c1C(=O)CCCCC(=O)O [EPSP-023] | 
